For one assay, the system named is MKN-1 cells (K-Ras WT). The assay is described as follows: 3D cell growth inhibition assay, MKN-1. Type of assay: cell-based. Conditions: Homo sapiens, 144 h, MKN-1, K-Ras WT, 6 days, absolute IC50.
The subject of assay [1] is NCI-H460 cells (K-Ras Q61H). The assay is described as follows: 3D cell growth inhibition assay, NCI-H460. It is filed as cell-based. As to conditions: Homo sapiens, 144 h, 6 days, absolute IC50.
Procedure: (§1) The cell growth inhibition activity of each of compounds was tested by performing cell growth inhibition assays on a variety of K-Ras mutant and K-Ras WT cell lines indicated in Table 25.
(§2) Each of cells in culture medium was plated in ultra-low attachment-coated 96-well plates at a density indicated in Table 25 and incubated in a cell incubator overnight. The next day, each of compounds was diluted in culture medium and added to the plates. After 6 days incubation in cell incubator, the cell viability was detected by CellTiter-Glo® 3D Cell Viability Assay kit (Promega).
Assay [2] relates to p-ERK in TCC-PAN2 cells (K-Ras G12R). Description: Phospho-ERK1/2(THR202/TYR204) HTRF assay, TCC-PAN2. It is filed as cell-based. Conditions: 2 hours incubation.
Procedure: (§3) p-ERK (MAPK pathway) inhibition activity of each of compounds in a variety of K-Ras mutant and K-Ras WT cell lines indicated in Table 23 was evaluated.
(§4) Each of cells in culture medium was seeded in 96-well plates at density indicated in Table 23 and then put in a cell incubator to incubate overnight. The next day, the culture medium was removed and the compound diluted in assay medium was added in each well. […] 10 μL of cell lysates from the 96-well plates were transferred to a 384-well plate (Greiner) containing 2.5 μL/well HTRF® pre-mixed antibodies (Cisbio 64AERPEH). The plate was incubated 4 hours at 25° C. and then read HTRF signals on Tecan Spark multimode microplate reader. The data were analyzed using a 4-parameter logistic model to calculate IC50 values.
Assay [3] relates to p-ERK in AGS cells (K-Ras G12D). Description: Phospho-ERK1/2(THR202/TYR204) HTRF assay, AGS. It is filed as cell-based. Conditions: Homo sapiens, 2 h, 2 hours incubation. For orientation: Time-resolved FRET reads energy transfer from a long-lived donor to a nearby acceptor.
Procedure: as §3, §4
For a further assay, the system named is AGS cells (K-Ras G12D). The assay is described as follows: 2D cell growth inhibition assay, AGS. Type of assay: cell-based. As to conditions: Homo sapiens, 144 h, 6 days, absolute IC50.
For assay [4], the system named is NCI-H358 cells (K-Ras G12C).
Procedure: as §2
Assay [5] deals with p-ERK in MKN-1 cells (K-Ras WT amplification). Description: Phospho-ERK1/2(THR202/TYR204) HTRF assay, MKN-1. Type of assay: cell-based. Conditions: Homo sapiens; MKN-1, K-Ras WT, 2 hours incubation.
Procedure: (§5) p-ERK (MAPK pathway) inhibition activity of each of compounds in a variety of K-Ras mutant and K-Ras WT cell lines indicated in Table 23 was evaluated. MKN-1 with K-Ras WT amplification is also a K-Ras dependent cell line.
as §4
Assay [6] relates to p-ERK in NCI-H358 cells (K-Ras G12C). The assay is described as follows: Phospho-ERK1/2(THR202/TYR204) HTRF assay, NCI-H358. It is filed as cell-based. As to conditions: Homo sapiens, 2 hours incubation.
Procedure: as §3, §4
Assay [7] deals with TCC-PAN2 cells (K-Ras G12R). The assay is described as follows: 3D cell growth inhibition assay, TCC-PAN2. Type of assay: cell-based. Conditions: 144 h, 6 days, absolute IC50.
Procedure: as §1, §2
Assay [8] deals with p-ERK in SW620 cells (K-Ras G12V). Description: Phospho-ERK1/2(THR202/TYR204) HTRF assay, SW620. As to conditions: Homo sapiens, SW-620, 2 h, 2 hours incubation. Type of assay: cell-based.
The test system of assay [9] is Capan-2 cells (K-Ras G12V).
Procedure: as §1, §2
Assay [10] concerns NCI-H747 cells (K-Ras G13D).
Procedure: as §1, §2
In assay [11] the test system is AsPC-1 cells (K-Ras G12D). The assay is described as follows: 2D cell growth inhibition assay, AsPC-1. It is filed as cell-based. Conditions: Homo sapiens, ASPC1, 144 h, AsPC-1, K-Ras G12D, 6 days, absolute IC50.
For assay [12], the system named is p-ERK in NCI-H747 cells (K-Ras G13D).
Procedure: as §3, §4
In the next assay the test system is SW620 cells (K-Ras G12V). The assay is described as follows: 2D cell growth inhibition assay, SW620. Type of assay: cell-based. As to conditions: Homo sapiens, SW-620, 144 h, 6 days, absolute IC50.
Assay [13] deals with p-ERK in NCI-H460 cells (K-Ras Q61H). The assay is described as follows: Phospho-ERK1/2(THR202/TYR204) HTRF assay, NCI-H460. It is filed as cell-based. Conditions: Homo sapiens, 2 hours incubation.
Procedure: as §5, §4
Assay [14] has as its target T1, K-Ras G12V (Homo sapiens, UniProt P01116, G12V). Description: SOS1 catalyzed nucleotide exchange assay (GDP form K-Ras), K-Ras G12V. Conditions: read-out: K-Ras G12V GDP Biochemical Activity (IC50).
In assay [15] the target is T1, K-Ras G12V. The assay is described as follows: biochemical.
Assay [16] deals with T2, K-Ras WT (Homo sapiens, UniProt P01116). The assay is described as follows: SOS1 catalyzed nucleotide exchange assay (GDP form K-Ras), K-Ras WT. As to conditions: read-out: K-Ras WT GDP Biochemical Activity (IC50).
Assay [17] concerns the target T3, K-Ras G13D (Homo sapiens, UniProt P01116, G13D). Description: biochemical.
The target of assay [18] is T2, K-Ras WT. Description: biochemical.
In assay [19] the target is T3, K-Ras G13D. Description: biochemical. The source holds these as a separate data set.

Values joined by “and” are separate entries in the source; they are usually repeats but may differ in a detail not shown here. Equal entries are not always repeated. Where two headings read alike, the source gives them in different places.

The values below come from patent US20250019377A1 (JACOBIO PHARMACEUTICALS CO., LTD, priority 2021, published 2025).

T2 sequence (P01116 1-169 isoform P01116-2): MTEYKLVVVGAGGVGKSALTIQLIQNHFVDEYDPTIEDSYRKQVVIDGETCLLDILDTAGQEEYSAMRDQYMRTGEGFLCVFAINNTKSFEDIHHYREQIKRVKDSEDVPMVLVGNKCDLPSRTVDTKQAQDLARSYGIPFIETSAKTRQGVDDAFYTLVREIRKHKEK
T1 sequence (P01116 1-169 isoform P01116-2 G12V): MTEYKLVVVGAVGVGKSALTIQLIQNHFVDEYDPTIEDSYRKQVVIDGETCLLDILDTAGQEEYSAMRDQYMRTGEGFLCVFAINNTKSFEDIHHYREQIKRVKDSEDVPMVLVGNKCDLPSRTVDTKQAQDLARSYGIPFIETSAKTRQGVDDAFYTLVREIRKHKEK
T3 sequence (P01116 1-169 isoform P01116-2 G13D): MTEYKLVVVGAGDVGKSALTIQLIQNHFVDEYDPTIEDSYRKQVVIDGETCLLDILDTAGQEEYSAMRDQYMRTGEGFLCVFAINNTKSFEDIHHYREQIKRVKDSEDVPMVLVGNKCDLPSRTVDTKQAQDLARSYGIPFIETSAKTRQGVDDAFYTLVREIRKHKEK
Procedure for MKN-1 cells (K-Ras WT): as §1, §2

Take `C#Cc1c(F)ccc2cc(O)cc(-c3nc(NC)c4c(N5CCCOCC5)nc(OC[C@@]56CCCN5C[C@H](F)C6)nc4c3F)c12` [Compound 53, 5-ethynyl-6-fluoro-4-(8-fluoro-2-(((2R,7aS)-2-fluorotetrahydro-1H-pyrrolizin-7a(5H)-yl)methoxy)-5-(methylamino)-4-(1,4-oxazepan-4-yl)pyrido[4,3-d]pyrimidin-7-yl)naphthalen-2-ol trifluoroacetic acid]: the IC50 (usually the point on the concentration scale where inhibition reaches its midpoint) with MKN-1 cells (K-Ras WT) was 25.7 nM; in [1], 24 nM; in assay [2] it was 456 nM; in [3], 2.66 nM; in the assay on AGS cells (K-Ras G12D), 9.17 nM; in assay [4], 47.2 nM. The IC50 in [5] was 9.74 nM; in [6], 3.86 nM; in [7] it was at least 1000 nM; in [8], 6.18 nM; in assay [9], 153 nM; in assay [10], 34 nM. The IC50 is 88.2 nM in assay [11], 6.93 nM in assay [12], 19.4 nM in the assay with SW620 cells (K-Ras G12V) and 17.5 nM in assay [13].

As for `C#Cc1c(F)ccc2cc(O)cc(-c3ncc4c(N5CCCOCC5)nc(OCC5CN(C(=O)C=C)CCN5C)nc4c3F)c12` (stereo not shown) [Compound 98, 1-(3-(((7-(8-ethynyl-7-fluoro-3-hydroxy-naphthalen-1-yl)-8-fluoro-4-(1,4-oxazepan-4-yl)pyrido[4,3-d]pyrimidin-2-yl)oxy)methyl)-4-methylpiperazin-1-yl)prop-2-en-1-one], the IC50 was 54.5 nM on K-Ras G12V [14]; 8190 nM against K-Ras G12V [15]; 318 nM on K-Ras WT [16]; over 200 nM against K-Ras G13D [17]; over 5000 nM on K-Ras WT [18]; over 100 nM on K-Ras G13D [19].

On to `C#Cc1c(F)ccc2cc(O)cc(-c3ncc4c(N5CCOC[C@H](OC)C5)nc(OC[C@@]56CCCN5C[C@H](F)C6)nc4c3F)c12` (single isomer, unassigned) [Compound 49B], for which the IC50 on K-Ras G12V [14] was 0.77 nM; in assay [3], 62.2 nM; in the assay on AGS cells (K-Ras G12D), 41.2 nM; on K-Ras G12V [15], 552 nM; at K-Ras WT [16], 2 nM; at K-Ras G13D [17], over 100 nM. Moreover, the concentration for half-maximal inhibition (IC50) against K-Ras WT [18] is 144 nM; against K-Ras G13D [19] it was over 100 nM; in [8], 19.9 nM; in assay [11] it was 428 nM; in the assay with SW620 cells (K-Ras G12V), 54.5 nM.

As to `C#Cc1c(F)ccc2cc(O)cc(-c3ncc4c(N5CCC6CC5CO6)nc(OC[C@@]56CCCN5C[C@H](F)C6)nc4c3F)c12` (stereo partly shown) [Compound 93], the IC50 on K-Ras G12V [14] was 19.9 nM and 4.42 nM; against K-Ras G12V [15] it was 2880 nM and 2030 nM; at K-Ras WT [16], 56 nM and 13.5 nM; on K-Ras G13D [17], over 200 nM; against K-Ras WT [18], 680 nM; on K-Ras G13D [19] it was over 100 nM. Moreover, the IC50 stood at 51.6 nM in [8] and 182 nM in the assay with SW620 cells (K-Ras G12V).

Turning to `C#Cc1c(Cl)ccc2cc(O)cc(-c3ncc4c(N5CCCOCC5)nc(OC[C@@]56CCCN5C[C@H](F)C6)nc4c3F)c12` [Compound 39, 6-chloro-5-ethynyl-4-(8-fluoro-2-(((2R,7aS)-2-fluorotetrahydro-1H-pyrrolizin-7a(5H)-yl)methoxy)-4-(1,4-oxazepan-4-yl)pyrido[4,3-d]pyrimidin-7-yl)naphthalen-2-ol trifluoroacetic acid], the IC50 stood at 7.34 nM in the assay with MKN-1 cells (K-Ras WT); 125 nM in assay [1]; 156 nM in assay [2]; 2.09 nM in the assay with AGS cells (K-Ras G12D); 9.92 nM in assay [5]; 1.38 nM in assay [6]. The IC50 in assay [7] turned out to be 949 nM; in assay [8] it was 3.36 nM; in [11], 61.2 nM; in the assay with SW620 cells (K-Ras G12V), 9.66 nM; in assay [13], 9.92 nM.
